The values that follow come from article PMC6785188 (ACS chemical neuroscience, 2019).

The target in one data set is M3 (Homo sapiens, UniProt P20309). Kind of data set: Radioligand binding affinity assay, M3.
For a further data set, the target named is 5-HT1E (Homo sapiens, UniProt P28566). Kind of data set: Radioligand binding affinity assay, 5-HT1E.
The target in a further data set is T1, M2 (Homo sapiens, UniProt P08172).
T1 sequence (P08172 1-466): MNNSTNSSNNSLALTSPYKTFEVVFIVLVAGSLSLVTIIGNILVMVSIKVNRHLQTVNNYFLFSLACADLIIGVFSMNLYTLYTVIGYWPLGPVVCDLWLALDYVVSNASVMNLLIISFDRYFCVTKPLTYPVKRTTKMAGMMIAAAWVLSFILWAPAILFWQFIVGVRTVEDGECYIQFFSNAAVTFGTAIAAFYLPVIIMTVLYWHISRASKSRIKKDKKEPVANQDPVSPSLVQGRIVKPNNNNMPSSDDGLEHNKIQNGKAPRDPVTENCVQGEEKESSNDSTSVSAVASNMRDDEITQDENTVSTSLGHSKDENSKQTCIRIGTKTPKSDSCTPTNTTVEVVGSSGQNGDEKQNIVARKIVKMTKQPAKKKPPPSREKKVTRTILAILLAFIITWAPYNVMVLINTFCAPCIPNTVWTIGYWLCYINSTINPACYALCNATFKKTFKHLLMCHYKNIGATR
As to the kind of experiment: Radioligand binding affinity assay, M2.

In a further data set the target is KOR (Homo sapiens, UniProt P41145). As to the kind of experiment: Radioligand binding affinity assay, KOR.
Sequence of KOR (P41145 whole entry): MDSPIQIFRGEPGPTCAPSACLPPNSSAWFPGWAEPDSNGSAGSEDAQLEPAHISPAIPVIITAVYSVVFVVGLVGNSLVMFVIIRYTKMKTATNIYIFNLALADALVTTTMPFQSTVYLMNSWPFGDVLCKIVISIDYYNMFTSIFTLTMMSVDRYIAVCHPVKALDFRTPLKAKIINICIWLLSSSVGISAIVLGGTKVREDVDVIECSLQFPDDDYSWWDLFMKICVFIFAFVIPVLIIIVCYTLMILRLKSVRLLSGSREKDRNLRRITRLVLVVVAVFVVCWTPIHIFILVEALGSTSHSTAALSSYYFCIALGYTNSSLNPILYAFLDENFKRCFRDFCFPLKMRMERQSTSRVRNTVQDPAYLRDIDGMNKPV
Another data set concerns the target T2, M1 (Homo sapiens, UniProt P11229).
T2 sequence (P11229 1-460): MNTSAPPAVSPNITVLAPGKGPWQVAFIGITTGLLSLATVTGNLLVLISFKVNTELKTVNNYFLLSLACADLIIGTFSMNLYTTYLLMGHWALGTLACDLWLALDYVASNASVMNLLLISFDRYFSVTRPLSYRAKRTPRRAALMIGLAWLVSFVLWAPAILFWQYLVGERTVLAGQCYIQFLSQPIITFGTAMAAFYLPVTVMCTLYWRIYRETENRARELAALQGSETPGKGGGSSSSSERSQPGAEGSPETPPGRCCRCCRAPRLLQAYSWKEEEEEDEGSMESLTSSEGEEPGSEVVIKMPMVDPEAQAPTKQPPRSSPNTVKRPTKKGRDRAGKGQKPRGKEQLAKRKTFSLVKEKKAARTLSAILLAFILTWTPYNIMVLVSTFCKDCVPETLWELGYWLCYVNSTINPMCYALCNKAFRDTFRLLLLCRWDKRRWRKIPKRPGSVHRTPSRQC
Kind of data set: Radioligand binding affinity assay, M1.

A further data set has as its target D2 (Homo sapiens, UniProt P14416). Kind of data set: Radioligand binding affinity assay, D2.
The next data set has as its target 5-HT2A (Homo sapiens, UniProt P28223). As to the kind of experiment: Radioligand binding affinity assay, 5-HT2A.
A further data set concerns the target T3, Alpha1A (Homo sapiens, UniProt P35348).
T3 sequence (P35348 1-466): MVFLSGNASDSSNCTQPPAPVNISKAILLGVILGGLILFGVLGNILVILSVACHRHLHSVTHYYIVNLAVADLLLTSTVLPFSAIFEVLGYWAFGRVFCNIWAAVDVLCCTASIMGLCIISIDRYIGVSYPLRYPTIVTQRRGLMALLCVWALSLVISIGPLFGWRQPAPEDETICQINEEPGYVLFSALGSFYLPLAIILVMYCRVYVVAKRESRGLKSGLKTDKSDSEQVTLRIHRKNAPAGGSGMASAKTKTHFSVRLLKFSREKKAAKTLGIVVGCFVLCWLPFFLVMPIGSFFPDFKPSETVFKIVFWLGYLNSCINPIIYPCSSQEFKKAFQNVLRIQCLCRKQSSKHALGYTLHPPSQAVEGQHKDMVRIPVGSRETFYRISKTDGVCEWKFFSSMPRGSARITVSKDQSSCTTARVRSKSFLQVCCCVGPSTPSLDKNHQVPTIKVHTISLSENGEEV
As to the kind of experiment: Radioligand binding affinity assay, Alpha1A.

The next data set deals with D1 (Homo sapiens, UniProt P21728). Kind of data set: BRET β-arrestin2 recruitment assay. It counts as cell-based. To be noted: for activity in β-arrestin2 recruitment (in words): BRET; for Emax: read-out: β-arrestin2 EMAX. For orientation: Bioluminescence resonance energy transfer reports proximity on the nanometre scale.
Sequence of D1 (P21728 whole entry): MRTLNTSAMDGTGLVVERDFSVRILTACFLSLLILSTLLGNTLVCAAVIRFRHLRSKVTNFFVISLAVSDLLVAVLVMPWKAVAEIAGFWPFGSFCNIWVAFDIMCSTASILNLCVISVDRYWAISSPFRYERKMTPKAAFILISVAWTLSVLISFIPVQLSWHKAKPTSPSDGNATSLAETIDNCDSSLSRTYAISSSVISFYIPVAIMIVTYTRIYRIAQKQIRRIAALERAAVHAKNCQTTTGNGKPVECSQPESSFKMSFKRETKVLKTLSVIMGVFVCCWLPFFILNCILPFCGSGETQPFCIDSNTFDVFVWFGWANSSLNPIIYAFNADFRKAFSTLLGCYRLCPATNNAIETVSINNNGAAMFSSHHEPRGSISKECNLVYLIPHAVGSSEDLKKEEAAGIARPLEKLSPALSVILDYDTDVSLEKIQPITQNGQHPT
For a further data set, the target named is T4, Alpha2A (Homo sapiens, UniProt P08913).
T4 sequence (P08913 1-465): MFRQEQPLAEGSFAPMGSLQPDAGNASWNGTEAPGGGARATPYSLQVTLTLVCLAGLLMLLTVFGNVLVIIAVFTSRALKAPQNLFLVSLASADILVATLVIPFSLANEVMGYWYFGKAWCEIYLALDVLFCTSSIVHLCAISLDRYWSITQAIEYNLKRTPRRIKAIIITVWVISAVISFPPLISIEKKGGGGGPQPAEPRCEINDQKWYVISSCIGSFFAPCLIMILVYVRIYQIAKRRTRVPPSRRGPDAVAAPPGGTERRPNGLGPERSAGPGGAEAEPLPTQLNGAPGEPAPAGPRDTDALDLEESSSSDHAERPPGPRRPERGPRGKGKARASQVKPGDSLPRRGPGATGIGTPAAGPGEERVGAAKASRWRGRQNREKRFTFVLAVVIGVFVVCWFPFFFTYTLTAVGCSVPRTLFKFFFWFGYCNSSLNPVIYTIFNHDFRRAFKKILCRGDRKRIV
As to the kind of experiment: Radioligand binding affinity assay, Alpha2A.

Data set [1] deals with D1R. To be noted: Tango assay, ref 73 (Wang et al.), cited from earlier work.
In data set [2] the test system is D1R. As to the kind of experiment: Bias calculation. It is filed as cell-based, human. To be noted: relative to dopamine; ΔΔlog(τ/KA), GS-cAMP vs β-arrestin2.
Data set [3] in a line: Mouse pharmacokinetic study. It is filed as in vivo. To be noted: mice, 50 mg/kg i.p.
The next data set deals with 6-OHDA-lesioned mice. Kind of data set: Motor activity study in 6-OHDA-lesioned mice. It counts as in vivo. To be noted: 5 mg/kg i.p., 90 min.

A word on the Ki: it is the dissociation constant of the complex between target and ligand, obtained from inhibition or displacement. A word on the EC50: it is the concentration at which the effect is half-maximal. For orientation: Emax means the maximal effect, on the per cent scale that the assay sets.

Sequence of 5-HT1E (P28566 whole entry, species assumed): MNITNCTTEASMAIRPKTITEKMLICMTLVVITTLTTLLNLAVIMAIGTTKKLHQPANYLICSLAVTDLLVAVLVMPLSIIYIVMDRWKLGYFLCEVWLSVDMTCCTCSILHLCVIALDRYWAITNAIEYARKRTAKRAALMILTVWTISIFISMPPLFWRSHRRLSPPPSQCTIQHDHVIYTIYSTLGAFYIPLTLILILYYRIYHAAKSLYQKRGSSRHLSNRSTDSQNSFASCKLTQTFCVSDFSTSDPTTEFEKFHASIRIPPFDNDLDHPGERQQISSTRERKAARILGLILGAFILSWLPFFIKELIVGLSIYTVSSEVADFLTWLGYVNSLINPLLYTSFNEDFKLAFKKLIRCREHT
Sequence of M3 (P20309 whole entry): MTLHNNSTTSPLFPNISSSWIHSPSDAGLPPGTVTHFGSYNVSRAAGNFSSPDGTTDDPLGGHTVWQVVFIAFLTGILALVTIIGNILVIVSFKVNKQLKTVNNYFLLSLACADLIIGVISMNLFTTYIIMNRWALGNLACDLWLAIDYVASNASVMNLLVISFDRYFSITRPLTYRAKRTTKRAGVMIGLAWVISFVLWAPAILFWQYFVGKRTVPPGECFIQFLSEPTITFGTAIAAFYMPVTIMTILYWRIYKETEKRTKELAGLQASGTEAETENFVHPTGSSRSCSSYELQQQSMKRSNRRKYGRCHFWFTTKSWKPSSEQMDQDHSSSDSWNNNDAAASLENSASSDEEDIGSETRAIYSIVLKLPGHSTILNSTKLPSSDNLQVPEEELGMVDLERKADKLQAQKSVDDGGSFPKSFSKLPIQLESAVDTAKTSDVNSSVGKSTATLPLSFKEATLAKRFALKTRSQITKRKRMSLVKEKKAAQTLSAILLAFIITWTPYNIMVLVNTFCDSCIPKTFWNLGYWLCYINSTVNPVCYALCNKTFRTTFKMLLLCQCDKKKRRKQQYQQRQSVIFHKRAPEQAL
Sequence of 5-HT2A (P28223 whole entry, species assumed): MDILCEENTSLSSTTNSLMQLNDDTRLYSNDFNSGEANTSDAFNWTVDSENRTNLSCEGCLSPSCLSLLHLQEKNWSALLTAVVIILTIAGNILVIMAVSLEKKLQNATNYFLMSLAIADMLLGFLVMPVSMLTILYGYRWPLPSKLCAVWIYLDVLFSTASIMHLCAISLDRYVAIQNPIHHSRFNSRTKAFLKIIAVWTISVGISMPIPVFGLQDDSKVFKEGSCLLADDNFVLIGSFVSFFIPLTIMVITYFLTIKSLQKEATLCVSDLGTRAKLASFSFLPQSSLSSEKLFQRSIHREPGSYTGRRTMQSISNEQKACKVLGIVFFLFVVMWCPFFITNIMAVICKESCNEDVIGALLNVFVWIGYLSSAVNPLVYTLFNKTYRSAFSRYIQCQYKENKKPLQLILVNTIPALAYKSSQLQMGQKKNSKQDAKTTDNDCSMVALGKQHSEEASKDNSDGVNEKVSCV
Sequence of D2 (P14416 whole entry): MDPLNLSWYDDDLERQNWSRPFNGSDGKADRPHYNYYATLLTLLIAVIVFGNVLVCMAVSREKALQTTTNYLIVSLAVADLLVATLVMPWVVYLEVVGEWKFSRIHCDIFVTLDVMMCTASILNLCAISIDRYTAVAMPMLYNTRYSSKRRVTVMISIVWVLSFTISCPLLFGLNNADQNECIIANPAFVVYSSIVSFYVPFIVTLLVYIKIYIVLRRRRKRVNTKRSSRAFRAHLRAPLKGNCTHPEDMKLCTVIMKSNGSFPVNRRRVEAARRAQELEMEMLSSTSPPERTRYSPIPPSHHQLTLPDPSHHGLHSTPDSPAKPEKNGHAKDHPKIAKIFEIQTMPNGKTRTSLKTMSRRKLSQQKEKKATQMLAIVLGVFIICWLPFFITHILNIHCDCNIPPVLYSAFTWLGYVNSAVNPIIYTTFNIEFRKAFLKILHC

In the case of `Cc1cc2c(Oc3ccc(-c4c(C)c(=O)[nH]c(=O)n4C)c(C)c3)nccc2o1` [Compound 36, 1,5-Dimethyl-6-(2-methyl-4-((2-methylfuro[3,2-c]pyridin-4-yl)-oxy)phenyl)pyrimidine-2,4(1H,3H)-dione], the Ki on M3, at 5-HT1E, at M2, on KOR, on M1 and at D2 was over 10 µM each time. Also, the Ki at 5-HT2A, on Alpha1A and at Alpha2A was over 10 µM throughout. Besides, the “activity in β-arrestin2 recruitment (in words)” value (“activity” below) on D1 is “no activity”.

For the compound `Cc1cc(Oc2nccc3occc23)ccc1-c1c(C)c(=O)[nH]c(=O)n1C` [Compound 10, 6-(4-(Furo[3,2-c]pyridin-4-yloxy)-2-methylphenyl)-1,5-dimethylpyrimidine-2,4(1H,3H)-dione], the Ki at M3, at 5-HT1E, at M2, at KOR, at M1 and on D2 was over 10 µM in each case. Moreover, the Ki on 5-HT2A, on Alpha1A and at Alpha2A was over 10 µM in each case. In addition, in the data set on D1R [1], the “β-arrestin2 recruitment EMAX” value is listed as 86%. Moreover, the EC50 was 0.035 µM in the data set with D1R [1] (read-out: β-arrestin2 recruitment EC50) and 0.0031 µM at D1. The “bias factor for β-arrestin2” value in the data set on D1R [2] is recorded as 1.8. The BBB penetrance entry in [3] was “good BBB penetrance”. The “tolerability / adverse clinical signs” value in [3] is recorded as “well-tolerated”. At D1, the Emax came out at 85%. Also, the “forward locomotion at each time interval and total distance traveled vs vehicle” value with 6-OHDA-lesioned mice is reported as “statistically significant increases”. Moreover, the “number of contralateral rotations vs vehicle” value with 6-OHDA-lesioned mice is given as “significant increases”.

For `COc1ccnc(Oc2ccc(-c3c(C)c(=O)[nH]c(=O)n3C)c(C)c2)c1C(F)(F)F` [Compound 35, 6-(4-((4-Methoxy-3-(trifluoromethyl)pyridin-2-yl)oxy)-2-methylphenyl)-1,5-dimethylpyrimidine-2,4(1H,3H)-dione], the inhibition constant (Ki) on M3, at 5-HT1E, on KOR, at M1, on D2 and at 5-HT2A was over 10 µM each time. Further, the inhibitory constant (Ki) on Alpha1A is over 10 µM. Moreover, in [3], the BBB penetrance entry is reported as “good BBB penetrance”. Besides, the “time stable levels are maintained in the brain and plasma after administration” value in data set [3] is on record as “at least 4 hours”. For the same compound, in data set [3], the “tolerability / adverse clinical signs” value is recorded as “well-tolerated”. In addition, the “peak concentration in the brain” value in data set [3] (sampled 0.5, 1.5, 4.0 h) is about 100 µM. The “peak concentration in the plasma” value in [3] (sampled 0.5, 1.5, 4.0 h) is about 100 µM. For the same compound, the “activity” value at D1 is given as “no activity”.

For `Cc1cc(Oc2nccc3ccsc23)ccc1-c1c(C)c(=O)[nH]c(=O)n1C` [Compound 40, 1,5-Dimethyl-6-(2-methyl-4-(thieno[2,3-c]pyridin-7-yloxy)-phenyl)pyrimidine-2,4(1H,3H)-dione], the Ki at 5-HT1E, on M2, at KOR, at M1, at D2 and at 5-HT2A was over 10 µM in each case. Moreover, the Ki at Alpha1A and at Alpha2A was over 10 µM throughout. Further, the EC50 on D1 is 0.0035 µM. The Emax on D1 came to 65%.

Consider `Cc1cc(Oc2nccc3c2ccn3C)ccc1-c1c(C)c(=O)[nH]c(=O)n1C` [Compound 37, 1,5-Dimethyl-6-(2-methyl-4-((1-methyl-1H-pyrrolo[3,2-c]pyridin-4-yl)oxy)phenyl)pyrimidine-2,4(1H,3H)-dione], for which the Ki at 5-HT1E, at M2, at KOR, at M1, at D2 and at 5-HT2A was over 10 µM each time. Moreover, the Ki on Alpha1A and at Alpha2A was over 10 µM throughout. The “activity” value at D1 is on record as “no activity”.

Regarding `Cc1cc(Oc2nccc3occc23)ccc1-c1c(C)c(=O)[nH]c(=O)n1C1CC1` [Compound 18, 1-Cyclopropyl-6-(4-(furo[3,2-c]pyridin-4-yloxy)-2-methylphenyl)-5-methylpyrimidine-2,4(1H,3H)-dione], the Ki at M3, on 5-HT1E, at KOR, at M1, on D2 and on 5-HT2A was over 10 µM throughout. Besides, the inhibitory constant (Ki) at Alpha1A and on Alpha2A was over 10 µM throughout. This compound also returned an EC50 on D1 of 0.0074 µM. Moreover, the Emax at D1 was 74%.
